Measurements from BindingDB's records for patent US11352330 (Hoffmann-La Roche, 2022).

Molecular target: Autotaxin (Homo sapiens, UniProt Q13822)
Assay: Human ATX Enzyme Inhibition Assay
Method: Assay working solutions were made as follows:Assay buffer (50 mM Tris-HCl, 140 mM NaCl, 5 mM KCl, 1 mM CaCl2, 1 mM MgCl2, 0.01% Triton-X-100, pH 8.0;ATX solution: ATX (human His-tagged) stock solution (1.08 mg/mL in 20 mM bicine, pH 8.5, 0.15 M NaCl, 10% glycerol, 0.3% CHAPS, 0.02% NaN3), diluted to 1.4-2.5× final concentration in assay buffer;MR121 substrate solution: MR121 substrate stock solution (800 μM MR121 substrate in DMSO), diluted to 2-5× final concentration in assay buffer.Test compounds (10 mM stock in DMSO, 8 μL) were obtained in 384 well sample plates (Corning Costar #3655) and diluted with 8 μL DMSO. Row-wise serial dilutions were made by transferring 8 μL cpd solution to the next row up to row O. The compound and control solutions were mixed five times and 2 μL were transferred to 384 well assay plates (Corning Costar #3702). Then, 15 μL of 41.7 nM ATX solution was added (30 nM final concentration), mixed five times and then incubated for 15 minutes at 30° C. 10 μL of MR121 substrate solution was added (1 μM final concentration), mixed 30 times and then incubated for 15 minutes at 30° C.

IC50: 15 nM
SMILES: COc1ccccc1-c1cc(Cl)c(C)cc1OCc1n[nH]c(=O)n1C [US11352330, Example B56]
